This test relates to B6C3F1 mice, ip Sarcoma M5076, median survival T/C. The test can be described thus: NCI In Vivo Anticancer Drug Screen. Data for tumor model Sarcoma M5076 (intraperitoneal) in B6C3F1 mice. Particulars: endpoint: median survival time, schedule: Q04DX004 (ip), higher = longer survival. The method, then:
The antitumor activity of compounds was measured in mice bearing transplantable tumors. Survival or tumor size were measured and the results are expressed as the measurement made in the treated group (T) divided by the measurement made in the vehicle treated control group (C). The tumor model used in this assay is Sarcoma M5076 (intraperitoneal) in B6C3F1 mice

Setting [1] is: dose: 12.5 mg/kg/injection, vehicle: saline.
Setting [2] is: dose: 25.0 mg/kg/injection, vehicle: saline.
[3] abbreviates: dose: 50.0 mg/kg/injection, vehicle: saline.
Setting [4] is: dose: 50.0 mg/kg/injection, vehicle: saline with Tween-80.
[5] abbreviates: dose: 100.0 mg/kg/injection, vehicle: saline with Tween-80.
Where [6] appears, read: dose: 200.0 mg/kg/injection, vehicle: saline with Tween-80.
[7] abbreviates: dose: 400.0 mg/kg/injection, vehicle: saline with Tween-80.
Setting [8] is: dose: 50.0 mg/kg/injection, vehicle: Klucel (hydroxypropylcellulose) (HPC).
Setting [9] is: dose: 100.0 mg/kg/injection, vehicle: Klucel (hydroxypropylcellulose) (HPC).
Where [10] appears, read: dose: 200.0 mg/kg/injection, vehicle: Klucel (hydroxypropylcellulose) (HPC).
The mark [11] stands for this setting: dose: 400.0 mg/kg/injection, vehicle: Klucel (hydroxypropylcellulose) (HPC).
Setting [12] is: dose: 25.0 mg/kg/injection, vehicle: saline with Tween-80.
Setting [13] is: dose: 37.5 mg/kg/injection, vehicle: saline with Tween-80.
Where [14] appears, read: dose: 75.0 mg/kg/injection, vehicle: saline with Tween-80.
The mark [15] stands for this setting: dose: 150.0 mg/kg/injection, vehicle: saline with Tween-80.
Setting [16] is: dose: 300.0 mg/kg/injection, vehicle: saline with Tween-80.
[17] abbreviates: dose: 25.0 mg/kg/injection, vehicle: water.
Where [18] appears, read: dose: 50.0 mg/kg/injection, vehicle: water.
The mark [19] stands for this setting: dose: 100.0 mg/kg/injection, vehicle: water.

Several values for one entry are separate records, joined by “and”; a condition that tells them apart may be missing. Equal values may be shown once. Toxic doses and inconclusive results are not listed.

Turning to `OCCN1CCN(CC/C=C2/c3ccccc3Sc3ccc(C(F)(F)F)cc32)CC1`, the T/C (dose: 6.25 mg/kg/injection, vehicle: saline) is 108 % of control; the T/C under setting [1] was 100 % of control; the T/C under setting [2] is 108 % of control; the T/C under setting [3] is 112 % of control.

With `CC(C)(C)c1cc2c3c(c1)Oc1cc(C(C)(C)C)cc4c1C3(O)c1c(cc(C(C)(C)C)cc1O4)O2`, the T/C is, setting by setting: (dose: 6.25 mg/kg/injection, vehicle: Klucel (hydroxypropylcellulose) (HPC)) 111 % of control; (dose: 9.0 mg/kg/injection, vehicle: Klucel (hydroxypropylcellulose) (HPC)) 113 % of control; (dose: 12.5 mg/kg/injection, vehicle: Klucel (hydroxypropylcellulose) (HPC)) 113 % of control.

Regarding `C/C=C\C1OC1(C)c1cc(=O)c2c(C)cc3c(c2o1)C(=O)c1c(O)c(C2CC(C)(N(C)C)C(OC(C)=O)C(C)O2)cc(C2CC(N(C)C)C(O)C(C)O2)c1C3=O` (stereo not given), the T/C was 105 % of control (dose: 0.19 mg/kg/injection, vehicle: saline + alcohol); 110 % of control (dose: 0.38 mg/kg/injection, vehicle: saline + alcohol); 120 % of control (dose: 0.75 mg/kg/injection, vehicle: saline + alcohol); 156 % of control (dose: 3.0 mg/kg/injection, vehicle: saline + alcohol).

Take `CS(=O)(=O)CS(=O)(=O)OCCF`: the T/C is 152 % of control under setting [1]; 176 % of control (dose: 18.0 mg/kg/injection, vehicle: saline); 189 % of control and 240 % of control under setting [2]; 244 % of control (dose: 30.0 mg/kg/injection, vehicle: saline); 234 % of control and 262 % of control under setting [3].

On to `Nc1ccc2c(c1)C1(CCC2)NC(=O)NC1=O` (stereo not given), for which the T/C is 97 % of control under setting [4], 96 % of control under setting [5], 98 % of control under setting [6] and 98 % of control under setting [7].

Take `CCOC(=O)C1=C(C)O/C(=C/c2cccc(Cl)c2)C1=O`: the T/C is 99 % of control under setting [5], 100 % of control under setting [6] and 93 % of control under setting [7].

As for `CC1CC12OC(=O)N(c1cc(Cl)cc(Cl)c1)C2=O` (stereo not given), the T/C (dose: 37.5 mg/kg/injection, vehicle: saline + Tween-80 + alcohol) was 101 % of control; the T/C (dose: 75.0 mg/kg/injection, vehicle: saline + Tween-80 + alcohol) is 99 % of control; the T/C (dose: 150.0 mg/kg/injection, vehicle: saline + Tween-80 + alcohol) was 99 % of control; the T/C (dose: 300.0 mg/kg/injection, vehicle: saline + Tween-80 + alcohol) is 95 % of control; the T/C (dose: 600.0 mg/kg/injection, vehicle: saline + Tween-80 + alcohol) was 91 % of control.

As to `CC1C=NNC1=O` (stereo not given), the T/C under setting [8] is 103 % of control; the T/C under setting [9] was 101 % of control; the T/C under setting [10] was 121 % of control; the T/C under setting [11] was 102 % of control; the T/C (dose: 800.0 mg/kg/injection, vehicle: Klucel (hydroxypropylcellulose) (HPC)) is 112 % of control.

In the case of `c1ccc2c(c1)oc1cc3c(cc12)n1nnnc1c1cccn31`, the T/C was 90 % of control (dose: 3.12 mg/kg/injection, vehicle: saline with Tween-80); 95 % of control (dose: 6.25 mg/kg/injection, vehicle: saline with Tween-80); 90 % of control (dose: 12.5 mg/kg/injection, vehicle: saline with Tween-80); 87 % of control under setting [12].

Consider `O=C1C(=O)N(c2cccc(Cl)c2)C(=O)N1Cc1ccccc1`, for which the T/C was 102 % of control (dose: 43.75 mg/kg/injection, vehicle: Klucel (hydroxypropylcellulose) (HPC)); 97 % of control (dose: 87.5 mg/kg/injection, vehicle: Klucel (hydroxypropylcellulose) (HPC)); 92 % of control (dose: 175.0 mg/kg/injection, vehicle: Klucel (hydroxypropylcellulose) (HPC)); 94 % of control (dose: 350.0 mg/kg/injection, vehicle: Klucel (hydroxypropylcellulose) (HPC)); 88 % of control (dose: 700.0 mg/kg/injection, vehicle: Klucel (hydroxypropylcellulose) (HPC)).

As for `CCn1c2ccccc2c2c3ncc4cccn4c3ccc21`, the T/C reads like this: under setting [13], 96 % of control; under setting [14], 96 % of control; under setting [15], 93 % of control; under setting [16], 92 % of control; (dose: 600.0 mg/kg/injection, vehicle: saline with Tween-80) 89 % of control.

`CCN(CC)C(=Nc1ccc(Cl)c(Cl)c1)SC(NC=O)=C(Cl)Cl`: the T/C is, setting by setting: (dose: 50.0 mg/kg/injection, vehicle: Klucel + Tween-80) 104 % of control; (dose: 100.0 mg/kg/injection, vehicle: Klucel + Tween-80) 97 % of control; (dose: 200.0 mg/kg/injection, vehicle: Klucel + Tween-80) 91 % of control.

With `COc1cccc(C2C(C#N)C(=O)NC(=O)C2C#N)c1` (stereo not given), the T/C by setting is: under setting [8], 99 % of control; under setting [9], 102 % of control; under setting [10], 98 % of control; under setting [11], 95 % of control.

As for `O=C1N=NC2=C1c1c3ccccc3c(O)n1CC2`, the T/C was 97 % of control under setting [17]; 95 % of control under setting [18]; 93 % of control under setting [19]; 100 % of control (dose: 200.0 mg/kg/injection, vehicle: water).

On to `CCC(CC)C(=O)NCC(=O)NO`, for which the T/C by setting is: under setting [12], 93 % of control; under setting [4], 93 % of control; under setting [5], 93 % of control; under setting [6], 97 % of control; under setting [7], 92 % of control.

Take `c1ccc2c(c1)oc1cc3c(cc12)nnc1cccn13`: the T/C runs as follows: (dose: 22.5 mg/kg/injection, vehicle: Klucel (hydroxypropylcellulose) (HPC)) 92 % of control; (dose: 45.0 mg/kg/injection, vehicle: Klucel (hydroxypropylcellulose) (HPC)) 96 % of control; (dose: 90.0 mg/kg/injection, vehicle: Klucel (hydroxypropylcellulose) (HPC)) 94 % of control; (dose: 180.0 mg/kg/injection, vehicle: Klucel (hydroxypropylcellulose) (HPC)) 88 % of control; (dose: 360.0 mg/kg/injection, vehicle: Klucel (hydroxypropylcellulose) (HPC)) 92 % of control.

Turning to `C=CC(=O)OCCOCN(COCCOC(=O)C=C)c1nc(N(COCCOC(=O)C=C)COCCOC(=O)C=C)nc(N(COCCOC(=O)C=C)COCCOC(=O)C=C)n1`, the T/C reads like this: (dose: 18.75 mg/kg/injection, vehicle: saline with Tween-80) 103 % of control; under setting [13], 100 % of control; under setting [14], 110 % of control; under setting [15], 104 % of control.

`Nc1ccn(C2CC(N)C(CO)O2)c(=O)n1` (stereo not given): the T/C under setting [17] was 109 % of control; the T/C under setting [18] was 118 % of control and 120 % of control; the T/C under setting [19] is 121 % of control and 124 % of control; the T/C (dose: 800.0 mg/kg/injection, vehicle: water) is 163 % of control.

As to `CC1CC(Nc2ccc(NC3=CC(=O)OC(C)C3)cc2)=CC(=O)O1` (stereo not given), the T/C under setting [13] was 99 % of control, the T/C under setting [14] was 97 % of control, the T/C under setting [15] is 94 % of control and the T/C under setting [16] is 90 % of control.

(Values after PubChem BioAssay AID292 (DTP/NCI, 2004).)
